# Results: patent US20260070895A1, “CRYSTALLINE FORMS” (QUIMATRYX, S.L., priority 2022, published 2026)
# “Also recorded” adds a separate entry of the source.
# Assay: Photostability at solid state (chemical purity by HPLC after illumination)
# Type: physicochemical
# Settings: for HPLC peak area, QTX125 RRT 1.00 / HPLC peak area, RRT 1.04 / degradation (in words) / HPLC peak area, RRT 1.12 / colour change of the solid material / HPLC peak area, RRT 1.08 / HPLC peak area, RRT 1.11 / HPLC peak area, RRT 1.20: solid-state; for degradation (in words): up to 171 hours
# Experimental: The method for determining purity by HPLC—used throughout these examples—used the following parameters:
# The photostability of novel crystalline forms of QTX125 was assessed at solid state and in solution. Where ‘forced illumination’ conditions were used, samples were illuminated at 12 Klux/hour and 2.8 UV W/m^2/hour. Samples were stored at a temperature of 30° C. Following incubation, the chemical purity of QTX125 was measured by HPLC.
# The following index is provided to aid navigation of the data presented in Tables 3.1.1 to 3.3.6: • 3.1.x—Assessment of the photostability of QTX125 Form 2. • 3.2.x—Assessment of the photostability of amorphous QTX125. • 3.3.x—Assessment of the photostability of the QTX125 1:2 L-Lysine adduct. • 3.x.1—Samples (at solid state) stored in unsealed clear glass bottles, subject to forced illumination. • 3.x.2—Samples (at solid state) sealed under nitrogen in clear glass bottles, subject to forced illumination. • 3.x.3—Samples (at solid state) sealed under nitrogen in amber glass bottles, illuminated under ambient laboratory conditions • 3.x.4—Samples (at solid state) sealed under nitrogen in amber glass bottles, subject to forced illumination. • 3.x.5—Samples (in solution) sealed under nitrogen in amber glass bottles, illuminated under ambient laboratory conditions. • 3.x.6—Samples (in solution) sealed under nitrogen in amber glass bottles, subject to forced illumination.
# [1] = sealed under nitrogen in amber glass bottles, ambient laboratory conditions, 0 hours
# [2] = sealed under nitrogen in amber glass bottles, ambient laboratory conditions, 3 hours
# [3] = sealed under nitrogen in amber glass bottles, ambient laboratory conditions, 26 hours
# [4] = sealed under nitrogen in amber glass bottles, ambient laboratory conditions, 74 hours
# [5] = sealed under nitrogen in amber glass bottles, ambient laboratory conditions, 171 hours
# [6] = sealed under nitrogen in amber glass bottles, ambient laboratory conditions, 171 hours, listed as Form 2
# [7] = sealed under nitrogen in amber glass bottles, forced illumination, 0 hours
# [8] = sealed under nitrogen in amber glass bottles, forced illumination, 3 hours
# [9] = sealed under nitrogen in amber glass bottles, forced illumination, 26 hours
# [10] = sealed under nitrogen in amber glass bottles, forced illumination, 74 hours
# [11] = sealed under nitrogen in amber glass bottles, forced illumination, 171 hours
# [12] = sealed under nitrogen in amber glass bottles, forced illumination, 171 hours, listed as Form 2
# [13] = sealed under nitrogen in clear glass bottles, forced illumination
# [14] = sealed under nitrogen in clear glass bottles, forced illumination, 0 hours
# [15] = sealed under nitrogen in clear glass bottles, forced illumination, 3 hours
# [16] = sealed under nitrogen in clear glass bottles, forced illumination, 26 hours
# [17] = sealed under nitrogen in clear glass bottles, forced illumination, 74 hours
# [18] = sealed under nitrogen in clear glass bottles, forced illumination, 171 hours
# [19] = unsealed clear glass bottles, forced illumination, 0 hours
# [20] = unsealed clear glass bottles, forced illumination, 3 hours
# [21] = unsealed clear glass bottles, forced illumination, 26 hours
# [22] = unsealed clear glass bottles, forced illumination, 74 hours
compound,measurement,setting,value
"O=C(NO)c1ccc(CNC(=O)c2[nH]c(-c3ccc(O)cc3)cc2-c2ccoc2)cc1 [QTX125 Form 2, 3-(3-Furyl)-N-{4-[(hydroxyamino)carbonyl]benzyl}-5-(4-hydroxyphenyl)-1H-pyrrole-2-carboxamide]",photostability as compared to amorphous QTX125,at solid state,enhanced photostability; also recorded: improved photostability
same,"HPLC peak area, QTX125 RRT 1.00",[1],98.21%
same,"HPLC peak area, RRT 1.04",[1],0.98%
same,"HPLC peak area, QTX125 RRT 1.00",[2],97.35%
same,"HPLC peak area, RRT 1.04",[2],1.06%
same,"HPLC peak area, QTX125 RRT 1.00",[3],98.11%
same,"HPLC peak area, RRT 1.04",[3],1.07%
same,"HPLC peak area, QTX125 RRT 1.00",[4],98.83%
same,"HPLC peak area, RRT 1.04",[4],0.55%
same,"HPLC peak area, QTX125 RRT 1.00",[5],98.12%
same,"HPLC peak area, RRT 1.04",[5],1.21%
same,"HPLC peak area, QTX125 RRT 1.00",[6],98.12%
same,"HPLC peak area, RRT 1.04",[6],1.21%
same,degradation (in words),"sealed under nitrogen in amber glass bottles, ambient laboratory conditions",little evidence of degradation
same,"HPLC peak area, QTX125 RRT 1.00",[7],98.21%
same,"HPLC peak area, RRT 1.04",[7],0.98%
same,"HPLC peak area, QTX125 RRT 1.00",[8],98.23%
same,"HPLC peak area, RRT 1.04",[8],0.99%
same,"HPLC peak area, QTX125 RRT 1.00",[9],97.82%
same,"HPLC peak area, RRT 1.04",[9],1.22%
same,"HPLC peak area, QTX125 RRT 1.00",[10],97.70%
same,"HPLC peak area, RRT 1.04",[10],1.06%
same,"HPLC peak area, QTX125 RRT 1.00",[11],95.40%
same,"HPLC peak area, RRT 1.04",[11],2.55%
same,"HPLC peak area, RRT 1.12",[11],0.28%
same,"HPLC peak area, QTX125 RRT 1.00",[12],95.40%
same,"HPLC peak area, RRT 1.04",[12],2.55%
same,"HPLC peak area, RRT 1.12",[12],0.28%
same,degradation (in words),"sealed under nitrogen in amber glass bottles, forced illumination",degrade slightly
same,colour change of the solid material,[13],change in colour from off white to dark green
same,"HPLC peak area, QTX125 RRT 1.00",[14],98.21%
same,"HPLC peak area, RRT 1.04",[14],0.98%
same,"HPLC peak area, QTX125 RRT 1.00",[15],97.78%
same,"HPLC peak area, RRT 1.04",[15],1.29%
same,"HPLC peak area, QTX125 RRT 1.00",[16],96.16%
same,"HPLC peak area, RRT 1.04",[16],2.16%
same,"HPLC peak area, QTX125 RRT 1.00",[17],84.98%
same,"HPLC peak area, RRT 1.04",[17],5.99%
same,"HPLC peak area, RRT 1.08",[17],1.24%
same,"HPLC peak area, RRT 1.11",[17],0.52%
same,"HPLC peak area, RRT 1.20",[17],0.66%
same,"HPLC peak area, QTX125 RRT 1.00",[18],82.33%
same,"HPLC peak area, RRT 1.04",[18],9.95%
same,"HPLC peak area, RRT 1.08",[18],0.41%
same,"HPLC peak area, RRT 1.11",[18],0.86%
same,"HPLC peak area, RRT 1.20",[18],0.22%
same,degradation (in words),[13],degrade to two principal components
same,colour change of the solid material,"unsealed clear glass bottles, forced illumination",change in colour from off white to dark green
same,"HPLC peak area, QTX125 RRT 1.00",[19],98.21%
same,"HPLC peak area, RRT 1.04",[19],0.98%
same,"HPLC peak area, QTX125 RRT 1.00",[20],97.68%
same,"HPLC peak area, RRT 1.04",[20],1.38%
same,"HPLC peak area, QTX125 RRT 1.00",[21],95.59%
same,"HPLC peak area, RRT 1.04",[21],2.38%
same,"HPLC peak area, QTX125 RRT 1.00",[22],90.53%
same,"HPLC peak area, RRT 1.04",[22],4.90%
same,"HPLC peak area, QTX125 RRT 1.00","unsealed clear glass bottles, forced illumination, 171 hours",83.78%
